From EP1311531B1, “STEROID DERIVED ANTIBIOTICS” (Brigham Young University, priority 2000, dated 2002)
Converted amounts (≈) assume the structure as drawn. Read-outs that look alike come from different tables or passages of the source.

Tests used:
[1] = system: Salmonella typhimurium ATCC 14028; assay: MIC and MBC measurement; format: cell-based; details: Salmonella enterica
Method: (§1) General: Microorganisms. Reference strains were purchased from the American Type Culture Collection (Rockville, MD) or Bactrol disks from Difeo Laboratories (Detroit, MI). […] Bacterial strains were maintained on Mueller-Hinton agar plates, and Candida albicans was maintained on Sabouraud Dextrose agar plates.
(§2) Aliquots (20 mL) of the homogeneous solution were then poured in sterile plastic petri dishes (100 x 15 mm, Fisher Scientific). Solutions of compounds were made by dissolving the HCl salt of the respective compound into an appropriate amount of deionized and sterilized water followed by microfiltration.
(§3) Aliquots of 1 mL of the suspension were added to test tubes containing 1 mL TSB and incrementally varied concentrations of cholic acid derivatives and/or erythromycin or novobiocin. […] Additionally, an alliquot from each of the samples showing no measurable turbidity was subcultured on TSA plates (alliquots were diluted to provide fewer than 300 CFU). Colonies that grew on the subculture after overnight incubation were counted and the number of CFU/mL in the samples were calculated. The calculated values were compared to the number of CFU/mL in the original inoculum.

[2] = system: Candida albicans ATCC 90028; assay: MIC and MBC measurement; format: cell-based; details: ATCC90028, Table 10
Method: as §1, §2, §3

[3] = system: Pseudomonas aeruginosa ATCC 27853; assay: MIC and MBC measurement; format: cell-based
Method: as §1, §2, §3

[4] = system: Klebsiella pneumonia ATCC 13883; assay: MIC and MBC measurement; format: cell-based; details: Klebsiella pneumoniae, ATCC13883
Method: as §1, §2, §3

[5] = system: Streptococcus pyogenes ATCC 19615; assay: MIC and MBC measurement; format: cell-based; details: ATCC19615, Table 10
Method: as §1, §2, §3

[6] = system: Salmonella typhimurium ATCC 14028; assay: Sensitization to erythromycin, novobiocin or rifampicin (permeabilization, FIC); format: cell-based; details: Table 13; with rifampicin (order of b151); Salmonella typhimurium ATCC 14028^b (footnote b not given)
[7] = system: Enterococcus faeculis ATCC 29212; assay: MIC and MBC measurement; format: cell-based, Enterococcus faecalis; details: ATCC29212
Method: as §1, §2, §3

[8] = system: outer membrane of Gram-negative bacteria; assay: Luciferin/luciferase luminescence assay of membrane permeabilization; format: cell-based, E. coli; details: Escherichia coli; permeabilization of the outer membrane allowing luciferin to enter the cell; read-out: half maximum luminescence
Method: Using a technique described by J. M. Shupp, S. E. Travis, L. B. Price, R. F. Shand, P. Keim, RAPID BACTERIAL PERMEABILIZATION REAGENT USEFUL FOR ENZYME ASSAYS, Biotechniques, 1995, vol.
In this assay, E. coli containing an inducible luciferase coding plasmid was incubated with the inducing agent […], then treated with a lysis buffer containing either PMB or one of the cholic acid derivatives, and Triton X-100. Luciferin and ATP were then added. […] The concentrations of the membrane disrupting agents (PMB and the cholic acid derivatives) were varied, and the resulting luminescence was measured.

E. coli (ATCC 10798) = assay: MIC and MBC measurement; format: cell-based, Escherichia coli
Method: as §1, §2, §3

[9] = ATCC27853, Table 6, P. aureginosa (ATCC 27853)
[10] = ATCC27853, Table 10, Pseudomonas aeruginosa ATCC 27853
[11] = Escherichia coli, ATCC10798, Table 1, E. coli (ATCC 10798), read-out: MBC
[12] = Escherichia coli, ATCC10798, Table 1, E. coli (ATCC 10798), read-out: MIC
[13] = Table 9, Escherichia coli (ATCC 10798)
[14] = ATCC10798, Table 9, Escherichia coli (ATCC 10798), read-out: MBC
[15] = ATCC10798, Table 9, Escherichia coli (ATCC 10798), read-out: MIC

Row | SMILES | MBC [1] [mg/L] | MIC [1] [mg/L] | MBC [2] [mg/L] | MIC [2] [mg/L] | MBC [3, 9] [mg/L] | MIC [3, 9] [mg/L] | MBC [3, 10] [mg/L] | MIC [3, 10] [mg/L] | MBC [4] [mg/L] | MIC [4] [mg/L] | MBC [5] [mg/L] | MIC [5] [mg/L] | FIC [6] | concentration required for bacterial growth inhibition [6] [µg/mL] | MBC [7] [mg/L] | MIC [7] [mg/L] | EC50 [8] [mg/L] | MBC (E. coli (ATCC 10798); [11]) [mg/L] | MIC (E. coli (ATCC 10798); [12]) [mg/L] | MBC (E. coli (ATCC 10798); [14]) [mg/L] | other results
1 | C[C@H](CCCN(C)Cc1ccccc1)[C@H]1CC[C@H]2[C@@H]3[C@H](OCCCN)C[C@@H]4C[C@H](OCCCN)CC[C@]4(C)[C@H]3C[C@H](OCCCN)[C@]12C [Compound 2] | 16 (≈ 23.9 µM) | 13 (≈ 19.4 µM) | 42 (≈ 62.8 µM) | 30 (≈ 44.8 µM) | 40 (≈ 59.8 µM) | 9 (≈ 13.5 µM) | > 17 | 11 (≈ 16.4 µM) | 17 (≈ 25.4 µM) | 14 (≈ 20.9 µM) | 2.3 (≈ 3.44 µM) | 2 (≈ 2.99 µM) | 0.079 | 0.39 | 19 (≈ 28.4 µM) | 3.4 (≈ 5.08 µM) | 7 (≈ 10.5 µM) | 16 (≈ 23.9 µM) | 7 (≈ 10.5 µM) | – | –
2 | C[C@H](CCCN(C)Cc1ccccc1)[C@H]1CC[C@H]2[C@@H]3[C@H](OCCCNC(=N)N)C[C@@H]4C[C@H](OCCCNC(=N)N)CC[C@]4(C)[C@H]3C[C@H](OCCCNC(=N)N)[C@]12C [Compound 5] | 3.8 (≈ 4.78 µM) | 2.2 (≈ 2.77 µM) | 50 (≈ 62.9 µM) | 11 (≈ 13.8 µM) | 15 (≈ 18.9 µM) | 6 (≈ 7.55 µM) | 9.9 (≈ 12.5 µM) | 5.9 (≈ 7.42 µM) | 6.7 (≈ 8.43 µM) | 3 (≈ 3.77 µM) | 2.1 (≈ 2.64 µM) | 2 (≈ 2.52 µM) | – | – | 16 (≈ 20.1 µM) | 2.2 (≈ 2.77 µM) | – | 4 (≈ 5.03 µM) | 2 (≈ 2.52 µM) | – | –
3 | C[C@H](CCCO)[C@H]1CC[C@H]2[C@@H]3[C@H](OCCCN)C[C@@H]4C[C@H](OCCCN)CC[C@]4(C)[C@H]3C[C@H](OCCCN)[C@]12C [Compound 10] | > 17 | 43 (≈ 76 µM) | 29 (≈ 51.2 µM) | 14 (≈ 24.7 µM) | – | 23 (≈ 40.6 µM) | 36 (≈ 63.6 µM) | 21 (≈ 37.1 µM) | 50 (≈ 88.4 µM) | 47 (≈ 83.1 µM) | 5.8 (≈ 10.2 µM) | 4.2 (≈ 7.42 µM) | 0.063 | 0.55 | 19 (≈ 33.6 µM) | 3.3 (≈ 5.83 µM) | 33 (≈ 58.3 µM) | 60 (≈ 106 µM) | 36 (≈ 63.6 µM) | – | MBC (E. coli (ATCC 10798); [13]): 60 mg/L (≈ 106 µM); MIC (E. coli (ATCC 10798); [13]): 36 mg/L (≈ 63.6 µM)
4 | C[C@H](CCCN(C)Cc1ccccc1)[C@H]1CC[C@H]2[C@@H]3[C@H](OCCN)C[C@@H]4C[C@H](OCCN)CC[C@]4(C)[C@H]3C[C@H](OCCN)[C@]12C [Compound 1] | > 25 | 21 (≈ 33.5 µM) | > 50 | 49 (≈ 78.2 µM) | > 50 | 15 (≈ 23.9 µM) | 38 (≈ 60.6 µM) | 26 (≈ 41.5 µM) | > 36 | 24 (≈ 38.3 µM) | 4.4 (≈ 7.02 µM) | 3 (≈ 4.78 µM) | 0.089 | 0.84 | 50 (≈ 79.7 µM) | 4.9 (≈ 7.82 µM) | – | 34 (≈ 54.2 µM) | 20 (≈ 31.9 µM) | – | –
5 | C[C@]12CC[C@@H](OCCCN)C[C@H]1C[C@@H](OCCCN)[C@@H]1[C@@H]2C[C@H](OCCCN)[C@]2(C)[C@@H](O)CC[C@@H]12 [Compound 106] | > 100 | > 100 | 92 (≈ 186 µM) | 75 (≈ 151 µM) | – | – | 97 (≈ 196 µM) | 85 (≈ 171 µM) | 100 (≈ 202 µM) | > 100 | 37 (≈ 74.6 µM) | 18 (≈ 36.3 µM) | 0.064 | 1.4 | > 100 | 12 (≈ 24.2 µM) | – | – | – | > 200 | MIC (E. coli (ATCC 10798); [15]): 140 mg/L (≈ 282 µM)
6 | CCCOCCC[C@@H](C)[C@H]1CC[C@H]2[C@@H]3[C@H](OCCCN)C[C@@H]4C[C@H](OCCCN)CC[C@]4(C)[C@H]3C[C@H](OCCCN)[C@]12C [Compound 112] | 90 (≈ 148 µM) | 86 (≈ 141 µM) | 45 (≈ 74 µM) | 41 (≈ 67.4 µM) | – | – | 6.4 (≈ 10.5 µM) | 4.6 (≈ 7.57 µM) | 27 (≈ 44.4 µM) | 23 (≈ 37.8 µM) | 3 (≈ 4.93 µM) | 2.4 (≈ 3.95 µM) | 0.051 | 0.10 | 4.7 (≈ 7.73 µM) | 3.1 (≈ 5.1 µM) | – | – | – | 17 (≈ 28 µM) | MIC (E. coli (ATCC 10798); [15]): 12 mg/L (≈ 19.7 µM)
